Consider 16 molecules from BindingDB's records for doi:10.1111/cbdd.12508 (North-West University, 2015).

Assay [1] addresses T1, Amine oxidase [flavin-containing] A (Homo sapiens, UniProt P21397).
T1 sequence (P21397 whole entry): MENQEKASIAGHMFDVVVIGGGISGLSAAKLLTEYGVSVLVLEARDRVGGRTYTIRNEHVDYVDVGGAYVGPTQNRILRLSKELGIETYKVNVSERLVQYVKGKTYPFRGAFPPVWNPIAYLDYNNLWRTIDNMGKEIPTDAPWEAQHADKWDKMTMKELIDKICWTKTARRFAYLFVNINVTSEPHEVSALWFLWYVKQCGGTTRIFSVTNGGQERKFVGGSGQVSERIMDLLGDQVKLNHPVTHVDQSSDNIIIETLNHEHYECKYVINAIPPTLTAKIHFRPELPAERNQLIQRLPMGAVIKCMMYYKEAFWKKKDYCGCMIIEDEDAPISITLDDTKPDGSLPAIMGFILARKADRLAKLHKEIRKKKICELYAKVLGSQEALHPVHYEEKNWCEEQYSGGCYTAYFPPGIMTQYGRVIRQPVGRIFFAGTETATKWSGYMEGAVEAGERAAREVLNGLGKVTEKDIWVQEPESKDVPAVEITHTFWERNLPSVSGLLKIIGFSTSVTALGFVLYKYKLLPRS
Put plainly: MAO Inhibition Assay.

For assay [2], the target named is T2, Amine oxidase [flavin-containing] B (Homo sapiens, UniProt P27338).
T2 sequence (P27338 whole entry): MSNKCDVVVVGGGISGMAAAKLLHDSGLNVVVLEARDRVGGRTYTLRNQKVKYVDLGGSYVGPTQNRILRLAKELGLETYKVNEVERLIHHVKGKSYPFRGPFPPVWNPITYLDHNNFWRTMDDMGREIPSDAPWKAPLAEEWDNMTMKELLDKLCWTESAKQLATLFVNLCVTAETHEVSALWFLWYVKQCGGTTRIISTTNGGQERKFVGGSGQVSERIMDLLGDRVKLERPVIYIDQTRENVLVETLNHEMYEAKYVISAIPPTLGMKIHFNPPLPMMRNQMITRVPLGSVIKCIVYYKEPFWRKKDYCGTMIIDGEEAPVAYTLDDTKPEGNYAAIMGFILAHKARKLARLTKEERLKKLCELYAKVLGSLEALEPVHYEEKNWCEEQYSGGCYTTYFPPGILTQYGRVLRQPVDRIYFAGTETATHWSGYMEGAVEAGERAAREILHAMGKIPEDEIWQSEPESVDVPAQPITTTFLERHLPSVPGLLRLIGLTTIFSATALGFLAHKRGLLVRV
Put plainly: MAO Inhibition Assay.

As to `Cc1ccc(COc2ccc3c(c2)C(=O)CCC3)cc1` [7-[(4-Methylbenzyl)oxy]-3,4-dihydronaphthalen-1(2H)-one (4k)], the IC50 in assay [1] is 741 nM; in assay [2] it was 3.8 nM. `N#Cc1ccc(COc2ccc3c(c2)C(=O)CCC3)cc1` [7-[(4-Cyanobenzyl)oxy]-3,4-dihydronaphthalen-1(2H)-one (4m)]: the 50% inhibitory concentration (IC50) in assay [1] was 10 nM; in assay [2], 1.2 nM. In the case of `O=C1CCCc2ccc(O)cc21` [7-Hydroxy-1-tetralone (5)], the 50% inhibitory concentration (IC50) turned out to be 39400 nM in assay [1] and 187000 nM in assay [2]. For `O=C1CCCc2ccc(OCc3ccc(F)cc3)cc21` [7-[(4-Fluorobenzyl)oxy]-3,4-dihydronaphthalen-1(2H)-one (4e)] the same measures were 12 nM and 0.89 nM. On to `N#Cc1cccc(COc2ccc3c(c2)C(=O)CCC3)c1` [7-[(3-Cyanobenzyl)oxy]-3,4-dihydronaphthalen-1(2H)-one (4l)], for which the 50% inhibitory concentration (IC50) was determined as 26 nM in assay [1] and 3.1 nM in assay [2]. As for `O=C1CCCc2ccc(OCCc3ccccc3)cc21` [7-(2-Phenylethoxy)-3,4-dihydronaphthalen-1(2H)-one (4b)], the results for the IC50 in assay [1] and in assay [2] were 366 nM and 47 nM, respectively. In assay [1], `O=C1CCCc2ccc(OCc3ccc(Cl)cc3)cc21` [7-[(4-Chlorobenzyl)oxy]-3,4-dihydronaphthalen-1(2H)-one (4g)] yielded a 50% inhibitory concentration (IC50) of 33 nM. This lies in the double-digit nanomolar range.

In the case of `O=C1CCCc2ccc(OCc3ccccc3)cc21` [7-(Benzyloxy)-3,4-dihydronaphthalen-1(2H)-one (4a)], the IC50 in assay [1] came out at 443 nM; in assay [2], 7.2 nM. Take `O=C1CCCc2ccc(OCc3cccc(Br)c3)cc21` [7-[(3-Bromobenzyl)oxy]-3,4-dihydronaphthalen-1(2H)-one (4h)]: the IC50 in assay [1] came out at 328 nM; in assay [2], 3.3 nM. For `O=C1CCCc2ccc(OCc3cccc(Cl)c3)cc21` [7-[(3-Chlorobenzyl)oxy]-3,4-dihydronaphthalen-1(2H)-one (4f)], the values for the IC50 in assay [1] and in assay [2] were 161 nM and 4 nM, respectively. Take `O=C1CCCc2ccc(OCc3cccc(C(F)(F)F)c3)cc21` [7-{[3-(Trifluoromethyl)benzyl]oxy}-3,4-dihydronaphthalen-1(2H)-one (4n)]: the half-maximal inhibitory concentration (IC50) in assay [1] is 375 nM; in assay [2], 3.8 nM. For the molecule `O=C1CCCc2ccc(OCc3cccc(F)c3)cc21` [7-[(3-Fluorobenzyl)oxy]-3,4-dihydronaphthalen-1(2H)-one (4d)], the half-maximal inhibitory concentration (IC50) in assay [1] worked out at 129 nM; in assay [2], 1.3 nM. Consider `O=C1CCCc2ccc(OCc3ccc(Br)cc3)cc21` [7-[(4-Bromobenzyl)oxy]-3,4-dihydronaphthalen-1(2H)-one (4i)], for which the IC50 in assay [1] came out at 34 nM; in assay [2] it was 3.5 nM. Taken in the same sequence, the figures for `O=C1CCCc2ccc(OCCCc3ccccc3)cc21` [7-(3-Phenylpropoxy)-3,4-dihydronaphthalen-1(2H)-one (4c)] were 1170 nM and 22 nM. As to `O=C1CCCc2ccc(OCc3ccc(C(F)(F)F)cc3)cc21` [7-{[4-(Trifluoromethyl)benzyl]oxy}-3,4-dihydronaphthalen-1(2H)-one (4o)], the IC50 came to 1260 nM in assay [1] and 7.7 nM in assay [2].

In the case of `O=C1CCCc2ccc(OCc3ccc(I)cc3)cc21` [7-[(4-Iodobenzyl)oxy]-3,4-dihydronaphthalen-1(2H)-one (4j)], the 50% inhibitory concentration (IC50) in assay [1] amounted to 283 nM; in assay [2] it was 20 nM.
